Test results taken from patent publication US10428082B2, “Triazole derivatives of melampomagnolide B and methods of use thereof” (BioVentures, LLC, priority 2016, dated 2019).
Read-outs that look alike come from different tables or passages of the source.

Key:
M9 ENL1 cell line = assay: Anti-leukemic activity, Annexin V/7-AAD flow cytometry; assay type: cell-based
Method: The newly synthesized triazole derivatives of melampomagnolide B were screened for anti-leukemic activity against M9 ENL1 and primary AML cell lines; the latter were obtained with informed consent from human patients. Evaluations were performed after 24 h of drug exposure using flow cytometric analysis by labeling with Annexin V and 7-aminoactinomycin D (7-AAD) to delineate apoptotic cell populations. In all experiments PTL was included as a reference control.

786-0 = assay: NCI 60 growth inhibition; assay type: cell-based, human; conditions: Homo sapiens; 786-0, Renal Cancer, Table 2
Method: (§1) The above triazole derivatives of melampomagnolide B were evaluated for growth inhibitory properties against an NCI panel of 60 human cancer cell lines derived from nine human cancer cell types, grouped into disease sub-panels that represent leukemia, lung, colon, central nervous system (CNS), melanoma, renal, ovary, breast, and prostate cancer cells. Growth inhibitory (GI50) effects were measured as a function of the variation of optical density as a percentage of control.

A498 = assay: NCI 60 growth inhibition; assay type: cell-based, human; conditions: Homo sapiens; A498, Renal Cancer, Table 2
Method: as §1

A549/ATCC = assay: NCI 60 growth inhibition; assay type: cell-based, human; conditions: Homo sapiens, Non-Small Cell Lung Cancer, Table 2
Method: as §1

COLO 205 = assay: NCI 60 growth inhibition; assay type: cell-based, human; conditions: Homo sapiens; COLO 205, Colon Cancer, Table 2
Method: as §1

HCC-2998 = assay: NCI 60 growth inhibition; assay type: cell-based, human; conditions: Homo sapiens; HCC-2998, Colon Cancer, Table 2
Method: as §1

HCT-15 = assay: NCI 60 growth inhibition; assay type: cell-based, human; conditions: Homo sapiens; HCT-15, Colon Cancer, Table 2
Method: as §1

HOP-62 = assay: NCI 60 growth inhibition; assay type: cell-based, human; conditions: Homo sapiens; HOP-62, Non-Small Cell Lung Cancer, Table 2
Method: as §1

HOP-92 = assay: NCI 60 growth inhibition; assay type: cell-based, human; conditions: Homo sapiens; HOP-92, Non-Small Cell Lung Cancer, Table 2
Method: as §1

HS 578T = assay: NCI 60 growth inhibition; assay type: cell-based, human; conditions: Homo sapiens, Breast Cancer, Table 2
Method: as §1

IGROV1 = assay: NCI 60 growth inhibition; assay type: cell-based, human; conditions: Homo sapiens, IGROV-1; IGROV1, Ovarian Cancer, Table 2
Method: as §1

LOX IMVI = assay: NCI 60 growth inhibition; assay type: cell-based, human; conditions: Homo sapiens, Melanoma, Table 2
Method: as §1

M14 = assay: NCI 60 growth inhibition; assay type: cell-based, human; conditions: Homo sapiens; M14, Melanoma, Table 2
Method: as §1

MALME-3M = assay: NCI 60 growth inhibition; assay type: cell-based, human; conditions: Homo sapiens, Melanoma, Table 2
Method: as §1

MDA-MB-231/ATCC = assay: NCI 60 growth inhibition; assay type: cell-based, human; conditions: Homo sapiens, Breast Cancer, Table 2
Method: as §1

MDA-MB-468 = assay: NCI 60 growth inhibition; assay type: cell-based, human; conditions: Homo sapiens; MDA-MB-468, Breast Cancer, Table 2
Method: as §1

MOLT-4 = assay: NCI 60 growth inhibition; assay type: cell-based, human; conditions: Homo sapiens; MOLT-4, Leukemia, Table 2
Method: as §1

NCI-H226 = assay: NCI 60 growth inhibition; assay type: cell-based, human; conditions: Homo sapiens; NCI-H226, Non-Small Cell Lung Cancer, Table 2
Method: as §1

NCI-H23 = assay: NCI 60 growth inhibition; assay type: cell-based, human; conditions: Homo sapiens; NCI-H23, Non-Small Cell Lung Cancer, Table 2
Method: as §1

NCI-H322M = assay: NCI 60 growth inhibition; assay type: cell-based, human; conditions: Homo sapiens, Non-Small Cell Lung Cancer, Table 2
Method: as §1

NCI-H460 = assay: NCI 60 growth inhibition; assay type: cell-based, human; conditions: Homo sapiens; NCI-H460, Non-Small Cell Lung Cancer, Table 2
Method: as §1

NCI-H522 = assay: NCI 60 growth inhibition; assay type: cell-based, human; conditions: Homo sapiens; NCI-H522, Non-Small Cell Lung Cancer, Table 2
Method: as §1

NCI/ADR-RES = assay: NCI 60 growth inhibition; assay type: cell-based, human; conditions: Homo sapiens, Ovarian Cancer, Table 2
Method: as §1

OVCAR-3 = assay: NCI 60 growth inhibition; assay type: cell-based, human; conditions: Homo sapiens; OVCAR-3, Ovarian Cancer, Table 2
Method: as §1

RXF 393 = assay: NCI 60 growth inhibition; assay type: cell-based, human; conditions: Homo sapiens
Method: as §1

SF-295 = assay: NCI 60 growth inhibition; assay type: cell-based, human; conditions: Homo sapiens; SF-295, CNS Cancer, Table 2
Method: as §1

SF-539 = assay: NCI 60 growth inhibition; assay type: cell-based, human; conditions: Homo sapiens; SF-539, CNS Cancer, Table 2
Method: as §1

SK-MEL-2 = assay: NCI 60 growth inhibition; assay type: cell-based, human; conditions: Homo sapiens; SK-MEL-2, Melanoma, Table 2
Method: as §1

SK-MEL-5 = assay: NCI 60 growth inhibition; assay type: cell-based, human; conditions: Homo sapiens; SK-MEL-5, Melanoma, Table 2
Method: as §1

SK-OV-3 = assay: NCI 60 growth inhibition; assay type: cell-based, human; conditions: Homo sapiens; SK-OV-3, Ovarian Cancer, Table 2
Method: as §1

SNB-75 = assay: NCI 60 growth inhibition; assay type: cell-based, human; conditions: Homo sapiens; SNB-75, CNS Cancer, Table 2
Method: as §1

SR = assay: NCI 60 growth inhibition; assay type: cell-based, human; conditions: Homo sapiens, Leukemia, Table 2
Method: as §1

T-47D = assay: NCI 60 growth inhibition; assay type: cell-based, human; conditions: Homo sapiens, T47D, Breast Cancer, Table 2
Method: as §1

UACC-62 = assay: NCI 60 growth inhibition; assay type: cell-based, human; conditions: Homo sapiens; UACC-62, Melanoma, Table 2
Method: as §1

UO-31 = assay: NCI 60 growth inhibition; assay type: cell-based, human; conditions: Homo sapiens; UO-31, Renal Cancer, Table 2
Method: as §1

[1] = test system: NCI panel of 60 human cancer cell lines; assay: NCI 60 growth inhibition, ranges over groups of cell lines; assay type: cell-based; conditions: read-out: GI50
Method: as §1

TK-10 = assay: NCI 60 growth inhibition; assay type: cell-based, human; conditions: Homo sapiens; TK-10, Renal Cancer, Table 2
Method: as §1

[2] = RXF 393, RXF 393, Renal Cancer, Table 2
[3] = all the cell lines in the leukemia sub-panel
[4] = most of the solid tumor cell lines in the panel

Row | Compound | GI50 (786-0) [nM] | GI50 (A498) [nM] | GI50 (A549/ATCC) [nM] | GI50 (COLO 205) [nM] | GI50 (HCC-2998) [nM] | GI50 (HCT-15) [nM] | GI50 (HOP-62) [nM] | GI50 (HOP-92) [nM] | GI50 (HS 578T) [nM] | GI50 (IGROV1) [nM] | GI50 (LOX IMVI) [nM] | GI50 (M14) [nM] | GI50 (MALME-3M) [nM] | GI50 (MDA-MB-231/ATCC) [nM] | GI50 (MDA-MB-468) [nM] | GI50 (MOLT-4) [nM] | GI50 (NCI-H226) [nM] | GI50 (NCI-H23) [nM] | GI50 (NCI-H322M) [nM] | GI50 (NCI-H460) [nM] | other results
1 | C=C1C(=O)O[C@H]2[C@H]1CC/C(Cn1cc(-c3cc(C(F)(F)F)cc(C(F)(F)F)c3)nn1)=C\CC[C@@]1(C)O[C@@H]21 [JVM 4-29, (1aR,7aS,10aS,10bS,E)-5-((4-(3,5-bis(Trifluoromethyl)phenyl)-1H-1,2,3-triazol-1-yl)methyl)-1a-methyl-8-methylene-2,3,6,7,7a,8,10a,10b-octahydrooxireno[2′,3′:9,10]cyclodeca[1,2-b]furan-9(1aH)-one] | 160 | 430 | 1360 | 140 | 1170 | 190 | 1560 | 340 | 1030 | 840 | 150 | 350 | 520 | 330 | 420 | 190 | 1650 | 1120 | 1670 | 1220 | EC50 (M9 ENL1 cell line; M9-ENL1, 24 h, 24 h of drug exposure, read-out: M9ENL1 (EC50)): 600 nM; cytotoxicity compared with parthenolide (M9 ENL1 cell line; M9 ENL1 cell assay): more cytotoxic than parthenolide; fold more potent than parthenolide (PTL) (M9 ENL1 cell line; M9 ENL1 cells): 8.6 fold; GI50 (NCI-H522): 120 nM; GI50 (NCI/ADR-RES): 1050 nM; GI50 (OVCAR-3): 150 nM; GI50 (RXF 393; [2]): 20 nM; GI50 (RXF 393; RXF 393, RXF 393 renal cancer cell line): 27 nM; GI50 (SF-295): 1190 nM; GI50 (SF-539): 170 nM; GI50 (SK-MEL-2): 340 nM; GI50 (SK-MEL-5): 1470 nM; GI50 (SK-OV-3): 1860 nM; GI50 (SNB-75): 1260 nM; GI50 (SR): 100 nM; GI50 (T-47D): 330 nM; GI50 (UACC-62): 340 nM; GI50 (UO-31): 380 nM; GI50 [1, 3]: 100 to 500 nM; GI50 [1, 4]: 120 to 880 nM
2 | C=C1C(=O)O[C@H]2[C@H]1CC/C(Cn1cc(-c3cccc(Cl)c3)nn1)=C\CC[C@@]1(C)O[C@@H]21 [JVM 4-25, (1aR,7aS,10aS,10bS,E)-5((4-(3-Chlorophenyl)-1H-1,2,3-triazol-1-yl)methyl)-1a-methyl-8-methylene-2,3,6,7,7a,8,10a,10b-octahydrooxireno[2′,3′:9,10]cyclodeca[1,2-b]furan-9(1aH)-one] | 500 | 1520 | 1790 | 410 | 1640 | 190 | 1940 | 250 | 2260 | 730 | 280 | 790 | 1200 | 1090 | 560 | 310 | 1710 | 1580 | 2170 | 2130 | GI50 (NCI-H522): 290 nM; GI50 (NCI/ADR-RES): 2390 nM; GI50 (OVCAR-3): 470 nM; GI50 (RXF 393; [2]): 550 nM; GI50 (SF-295): 3410 nM; GI50 (SF-539): 250 nM; GI50 (SK-MEL-2): 1660 nM; GI50 (SK-MEL-5): 1700 nM; GI50 (SK-OV-3): 3670 nM; GI50 (SNB-75): 1160 nM; GI50 (SR): 230 nM; GI50 (T-47D): 830 nM; GI50 (TK-10): 990 nM; GI50 (UACC-62): 620 nM; GI50 (UO-31): 1080 nM; GI50 [1, 3]: 100 to 500 nM; GI50 [1, 4]: 160 to 990 nM
